Measurements as given in patent US11565003B2, “Mechanical opening of lipid bilayers by molecular nanomachines” (William Marsh Rice University, priority 2016, dated 2023).

System: synthetic bilipid vesicles
Assay: BODIPY dye release from synthetic bilipid vesicles upon UV illumination
Conditions: first 15 minutes of UV exposure, 365 nm
Experimental: Premixed and dried synthetic phospholipid blend [1,2-dioleoyl-sn-glycero-3-phosphoethanolamine (DOPE): 1,2-dioleoyl-sn-glycero-3-phospho-L-serine (DOPS): 1,2-dioleoyl-sn-glycero-3-phosphocholine (DOPC) at a ratio of 5:3:2] were stored in a −20° C. freezer before use. To prepare the large unilamellar vesicles (LUVs), 5 mL 0.5× phosphate buffered saline (PBS) at pH 7.4 was added to swell the lipids solution (lipid concentration was 0.25 mg/mL). Then 7 μL of 210 μM BODIPY dye and 2 μL of 50 μM 1 (or 16 in the control experiments) were added to the solution. After incubation for 1 hour at room temperature with occasional vortexing, the lipids formed a cloudy suspension. […] The vesicles were then observed using a home-build confocal fluorescence microscope at 488 nm excitation and 535±50 nm emission.
Due to the highly non-polar nature of compound 1, it prefers to be sorbed in the bilipid membrane (FIG. 3). […] The fluorescence intensity of the BODIPY dye molecules in single vesicles was monitored using a confocal fluorescence microscope by continuously scanning a small area (20×20 μm^2).
As the UV illumination time increased from 0 to 15 minutes, the fluorescence intensity of the vesicles became dimmer (FIG. 4E). […] The average fluorescence intensity drop of 20 vesicles was 70±6% (mean±standard deviation) in the first 15 minutes of UV exposure. […]

COc1cc(C#Cc2ccc(C3=C4C(C)=C(C#CC56CC7CC(CC(C7)C5)C6)C(C)=[N+]4[B-](F)(F)n4c(C)c(C#CC56CC7CC(CC(C7)C5)C6)c(C)c43)cc2)c(OC)cc1C#Cc1ccc(C2=C3C(C)=C(C#CC45CC6CC(CC(C6)C4)C5)C(C)=[N+]3[B-](F)(F)n3c(C)c(C#CC45CC6CC(CC(C6)C4)C5)c(C)c32)cc1 [Compound 16]
average fluorescence intensity drop of BODIPY in 20 vesicles (mean±standard deviation): 9%±20%
